“And” between values parts separate entries of the source, which are not always exact repeats. Identical values can stand only once. The source made the active and inactive calls.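 The calls were made as follows: active = compounds giving half or more protection of infected cells from virus-caused growth loss, again on retest; inactive = the rest.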 Where a SMILES comes first, the peptide text is derived from it. [ ]: non-standard residue; d: D form. The star is where a group is joined. ξ: configuration not given here. Boc = CC(C)(C)OC(=O)*; ξV = CC(C)C(N)C(=O)O; OBn = c1ccc(CO*)cc1
Tested on: CEM cells HIV-1 protection, formazan growth assay
Assay: NCI AIDS Antiviral Assay
Conditions: for IC50: measured here: growth of uninfected CEM cells
Method in brief: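 Screen of anti-HIV-1 activity in human CEM cells using a formazan-based growth measurement at five drug concentrations. Hits with 50% or greater protection were repeated, and confirmation required reproducible complete protection.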

| Compound | EC50 [µM] | IC50 | outcome |
| --- | --- | --- | --- |
| O=C1NC(=S)NC(=O)C1=Cc1ccc(Cl)c(Cl)c1 | > 87.1 | > 87.1 µM | – |
| Cn1cc(NC(=O)c2nc(NC(=O)c3nc(NC(=O)c4ccc(C(=O)Nc5cn(C)c(C(=O)Nc6cn(C)c(C(=O)Nc7cn(C)c(C(=O)NCCC(=N)N)n7)n6)n5)cc4)cn3C)cn2C)nc1C(=O)NCCC(=N)N | > 12.9 | 2.34 µM | – |
| COc1csc([C@H]2CCC3[C@@H]4CC=C5C[C@@H](O)CC[C@]5(C)C4CC[C@@]32C)n1 (stereo not given in full) | > 17.4 | > 17.4 µM | – |
| O=[N+]([O-])c1nccn1CCCN=c1c2ccccc2n(O)c2ccccc12 | > 200 | 46.8 µM | – |
| Fc1ccc(C2SCc3nc4ccccc4n32)cc1 (stereo not given) | – | – | inactive |
| COC1=NS(=O)(=O)C(C)C(C)(C)O1 (stereo not given) | > 427 | > 427 µM | – |
| C[C@H]1Oc2c3c(c4c(c2C(=O)[C@@H]1C)OCC=C4)OCC=C3 | > 200 | 89.1 µM | – |
| O=C1C=CC(=O)[C@H]2C3C=CC(C4C3C3(Cl)C(Cl)=C(Cl)[C@]4(Cl)C3(Cl)Cl)[C@@H]12 (stereo not given in full) | > 200 | 12 µM | – |
| O=C(O)c1c(Br)c(Br)c(Br)c(Br)c1-c1c2ccc(=O)cc-2oc2cc(O)ccc12 | > 200 | 28.2 µM | – |
| CCN=C(NC(=O)c1ccc(F)cc1)SCSC(=NCC)NC(=O)c1ccc(F)cc1 | > 200 | > 200 µM | – |
| CCN(CC)CC(C)Nc1cc(C)nc2c1ccc1c2ccc2c(NC(C)CN(CC)CC)cc(C)nc21 (stereo not given) | > 380 | 234 µM | – |
| Clc1ccc(-c2nnc3c4nnc(-c5ccc(Cl)cc5Cl)n4c4ccccc4n23)c(Cl)c1 | – | – | inactive |
| COC(=O)C(Cc1cn(C(C)=O)c2ccccc12)P(=O)(OC)OC (stereo not given) | > 200 | > 200 µM | – |
| COc1cc(OC)c2c(c1)OC(=O)C(C(C)=O)C2 (stereo not given) | > 200 | > 200 µM | – |
| CC(=O)OCC1OC(n2c(=S)n(-c3ccccc3)c(=S)c3ccccc32)C(OC(C)=O)C(OC(C)=O)C1OC(C)=O (stereo not given) | > 16.6 | > 16.6 µM | – |
| O=c1cc(NNCc2ccccc2)[nH]c(=O)[nH]1 | > 200 | 57.5 µM | – |
| NC(=O)CNC(=O)c1ccc(NC(=O)c2ccccc2SC(=O)CCCC[n+]2ccccc2)cc1 | 15.8 | 50.1 µM | – |
| N#CCCN(C1=NN(C(=O)CC(=O)Nc2ccccc2Cl)C(c2ccccc2)C1)c1ccccc1Cl (stereo not given) | > 36.3 | > 36.3 µM | – |
| COC(=S)SSC(=S)NCCN(CCNC(=S)SSC(=S)OC)C(=S)SSC(=S)OC | > 257 | 209 µM | – |
| CC(C)(CO)CNc1nc(N)nc(Cl)c1N | > 200 | > 200 µM | – |
| COC1CC(OC2C(C)OC(OC3C(C)OC(OC4C(O)CC(O[C@H]5CC[C@@]6(C)C(=CC[C@]7(O)[C@@H]6C[C@@H](OC(C)=O)[C@@]6(C)[C@]7(O)CC[C@@]6(O)C(C)=O)C5)OC4C)CC3OC)CC2OC)OC(C)C1O (stereo not given in full) | > 200 | > 200 µM | – |
| O=C(Nc1ccccc1)N1CC(CN2CCN(c3ccccc3)CC2)OC1=O (stereo not given) | > 200 | > 200 µM | – |

| Compound | EC50 [µM] | IC50 | outcome |
| --- | --- | --- | --- |
| Oc1ccc2occ3c2c1CCC3 | – | – | inactive |
| CCC1([N+](=O)[O-])COP(N)(=O)OC1 (stereo not given) | > 427 | 31.6 µM | – |
| COC(=O)c1ccccc1/C=C1\Cc2c(C)c3c(c(C)c2C1=O)CCC3 | – | – | inactive |
| C[C@]12CCC[C@H](OC=O)C1(O)C[C@H](C(=O)O)CC2 (stereo not given in full) | – | – | inactive |
| CN(CCO)CCC1COc2ccccc2O1 (stereo not given) | – | – | inactive |
| COc1cc(Nc2ccc3c(c2)CCC3)nc(OC)n1 | > 200 | 31.6 µM | – |
| c1ccc(N/N=C2\CC(c3ccccc3)Oc3ccccc32)cc1 (stereo not given) | > 200 | 22.4 µM | – |
| CC1[C@@H](OCc2ccccc2)COC(=O)N1Cc1ccccc1 (stereo not given in full) | > 200 | 89.1 µM | – |
| COc1cc(C(=O)Nc2nnc(S(N)(=O)=O)s2)cc(OC)c1OC | > 200 | > 200 µM | – |
| Nc1c(N=Nc2ccc(S(=O)(=O)c3ccc(N=Nc4cc(S(=O)(=O)O)c5cccc(S(=O)(=O)O)c5c4N)cc3)cc2)cc(S(=O)(=O)O)c2cccc(S(=O)(=O)O)c12 | 25.1 | 380 µM | – |
| ClC(Cl)=C(Cl)C1(Cl)CC1COCc1ccccc1 (stereo not given) | > 30.9 | 24.5 µM | – |
| O=c1c(O)c(-c2ccc3c(c2)OCO3)oc2c(Cl)cc(Cl)cc12 | > 100 | > 100 µM | – |
| O=C(Nc1ccc(-c2cccs2)oc1=O)c1ccccc1 | > 200 | > 200 µM | – |
| CC1=C[C@H]2O[C@@H]3C[C@H]4OC(=O)/C=C\C=C\[C@H]([C@@H](C)O)OC[C@H](O)[C@@]5(C)O[C@@H]5C(=O)OC[C@@]2(C[C@H]1O)[C@]4(C)C31CO1 (stereo not given in full) | > 4.47 | 0.00575 µM | – |
| CCOC(=O)c1c(NC(=O)c2ccc(Br)cc2)sc2c1CCCC2 | > 200 | > 200 µM | – |
| CC(=O)N1N=C(c2ccc3ccccc3c2O)CC1C(=O)c1ccco1 (stereo not given) | > 200 | 23.4 µM | – |
| C#CCN1CCN(C(=S)N/N=C(\C)c2ccccn2)CC1 | > 2.24 | 0.0724 µM | – |
| OCC1OC(n2cnc3cncnc32)CC1O (stereo not given) | – | – | inactive |
| COc1cc(/C=C2\C(=O)N(c3ccccc3)C(c3ccccc3)S2(=O)=O)cc(OC)c1OC (stereo not given) | > 20 | 2.88 µM | – |
| CCN(CC)C(=O)c1cc(OC(C)C)ccc1-c1c(C)cc(OC(C)C)c(OC)c1OC | > 214 | > 214 µM | – |
| CCCCN=C(NC#N)NCCCC | > 457 | 224 µM | – |
| CCOP(=O)(CC(=O)NC(C(N)=O)C(C)C)OCC (stereo not given) | > 100 | 52.5 µM | – |

| Compound | EC50 [µM] | IC50 | outcome |
| --- | --- | --- | --- |
| N#CC(C(=O)/C(=N/N)C(C#N)c1ccc(Cl)cc1)c1ccc(Cl)cc1 (stereo not given) | > 676 | > 676 µM | – |
| CC(C)CC1NC(CC(C)C)N2C(CC(C)C)N12 (stereo not given) | > 39.8 | > 39.8 µM | – |
| CC(=O)NNc1nc(C)c(C(/C=C/c2ccc3c(c2)OCO3)=N/NC(=O)c2ccncc2)s1 | > 50.1 | > 50.1 µM | – |
| CC(C)O/C=C1\CCc2ccccc2C1=O | > 200 | 36.3 µM | – |
| O=C1C(=C/C=C2/SC(c3ccccc3)(c3ccccc3)c3ccccc32)C(=O)c2ccccc21 | > 200 | > 200 µM | – |
| NC(Cc1ccc(OCc2ccccc2)cn1)C(=O)OCc1ccccc1 (stereo not given) | > 200 | > 200 µM | – |
| COc1cc2c(c(OC)c1OC)-c1ccc(OC)c(=O)cc1C(NC(=O)CCCCCNc1ccc(N=[N+]=[N-])cc1[N+](=O)[O-])CC2 (stereo not given) | > 200 | 0.0631 µM | – |
| C=C=C(Sc1ccccc1)C(C)(C)OC(C)=O | > 50.1 | 14.5 µM | – |
| Cn1c(=O)n2n(c1=O)C(C)(C13CC4CC(CC(C4)C1)C3)C13CC4CC(CC1C4)CC23 (stereo not given) | > 100 | > 100 µM | – |
| CC(C)C(NC(=O)CNC(=O)OC(C)(C)C)C(=O)OCc1ccccc1 (stereo not drawn) (Boc-Gly-[ξV]-OBn) | > 200 | 148 µM | – |
| CC(=O)n1c(=S)n(C(C)=O)c2ccccc21 | > 200 | > 200 µM | – |
| CC(=O)Nc1ccccc1 | > 1860 | > 1860 µM | – |
| Cc1cc(C)nc(NC(P(=O)(O)O)P(=O)(O)O)n1 | > 200 | > 200 µM | – |
| CCOC(=O)CCC(NC(=O)c1ccc(CNc2nc3ccccc3nc2C(=O)OCC)cc1)C(=O)OCC (stereo not given) | > 200 | > 200 µM | – |
| CCCCC#C[I+]c1ccccc1 | – | – | inactive |
| COc1ccc(-c2cc(=O)cc(C(N)=O)o2)cc1 | > 200 | > 200 µM | – |
| CC(C)C(Sc1nc(-c2ccccc2)c(-c2ccccc2)[nH]1)C(=O)NNC(=S)Nc1ccccc1 (stereo not given) | > 51.3 | 24 µM | – |
| CCOC(=O)c1c(NC(=O)c2ccccc2)sc2c(=O)oc(-c3ccccc3)nc12 | > 24 | > 24 µM | – |
| COc1ccc2c(c1)c(=O)c1c(NCCN(C)C)ccc3c(=O)n(CCN(C)C)c(=O)n2c31 | 0.0204 | 0.0324 µM | – |
| Cn1c2ccccc2n2c3ncccc3c(=O)c(C#N)c12 | > 50.1 | 1.26 µM | – |
| O=C(CCSSCCC(=O)ON1C(=O)CCC1=O)ON1C(=O)CCC1=O | > 200 | > 200 µM | – |
| COc1ccc(C(=O)CCC(NC(C)=O)C(=O)O)cc1 (stereo not given) | > 100 | > 100 µM | – |

| Compound | EC50 [µM] | IC50 | outcome |
| --- | --- | --- | --- |
| COC1CC(C)(N)C(O)C(C)O1 (stereo not given) | > 200 | > 200 µM | – |
| O=C1C=C(c2c(O)ccc3ccccc23)c2ccccc2C1=O | – | – | inactive |
| C[C@]12CC(C#N)C(=O)C(O)=C1CC[C@@H]1C2CC[C@@]2(C)C1CC[C@@H]2O (stereo not given in full) | – | – | inactive |
| CC1CCn2c(=S)[nH]c3cccc(c32)N1 (stereo not given) | 42.7 | 182 µM | – |
| CCCCCOC(=O)C(=O)Nc1n[nH]nc1C(N)=O | > 200 | > 200 µM | – |
| COc1ccc(/C=N/Nc2nc(C)c(C)s2)cc1 | > 100 | > 100 µM | – |
| CCOC(=O)NP(=O)(Nc1ccccc1)Nc1ccccc1 | > 200 | > 200 µM | – |
| O=[N+]([O-])c1ccccc1N=Nc1c(O)[nH]c2ccc(S(=O)(=O)O)cc12 | > 200 | > 200 µM | – |
| CCOC(O)(NC(=O)C(C(F)(F)F)C(F)(F)F)C(F)(F)F (stereo not given) | > 200 | > 200 µM | – |
| O=C(O)Cc1ccc2c(c1O)C(=O)c1c(ccc(CC(=O)O)c1O)C2=O | > 191 | 126 µM | – |
| CC1=C(C(=O)Nc2ccc([N+](=O)[O-])cc2)C(c2cccc([N+](=O)[O-])c2)C(C(=O)Nc2ccc([N+](=O)[O-])cc2)=C(C)N1 | > 4.9 | > 4.9 µM | – |
| COC1(OC)CC2OC1C1N=NN(C(=O)OC(C)(C)C)C21 (stereo not given) | > 33.1 | > 33.1 µM | – |
| O=C(Nc1cc([N+](=O)[O-])cc([N+](=O)[O-])c1)OC1C2CCC1C1OC1C2 (stereo not given) | > 14.8 | > 14.8 µM | – |
| Cc1ccc2c(n1)NC(=O)C(Cc1ccccc1)(N=[N+]=[N-])C2=O (stereo not given) | > 200 | > 200 µM | – |
| CCC(C)C(=O)c1c(O)c(CC2OC2(C)C)c(O)c2c(C(O)CC)cc(=O)oc12 (stereo not given) | > 200 | 5.62 µM | – |
| COC(=O)C1CCC(=S)N1C(=O)OCc1ccccc1 (stereo not given) | > 200 | > 200 µM | – |
| N[C@H](CSSC[C@@H](N)C(=O)Nc1ccc2ccccc2c1)C(=O)Nc1ccc2ccccc2c1 | > 200 | 2.75 µM and 3.55 µM | – |
| CC(Oc1ccc(Oc2cnc3ccc(Cl)cc3n2)cc1)C(=O)O (stereo not given) | > 141 | 17.4 µM | – |
| O=[N+]([O-])c1cccc(/C=N/Nc2ccc(S(=O)(=O)O)cc2)c1 | > 724 | 646 µM | – |
